The record followed here is PMC8001898, “New Triterpene Glycosides from the Far Eastern Starfish Solaster pacificus and Their Biological Activity” (Biomolecules, 2021).

Like-named read-outs stand apart in the source and are kept apart here.

Assay [1] deals with human embryonic kidney HEK 293 cells. The assay can be described thus: MTS cell viability assay, HEK 293 cells. The class given is cell-based. As for the experimental part:
(§1) Human embryonic kidney HEK 293 cells (ATCC® no. CRL-1573™), colorectal carcinoma HT-29 cells (ATCC® no. HTB-38™), melanoma RPMI-7951 cells (ATCC® no. HTB-66), and breast cancer MDA-MB-231 cells (ATCC® HTB-26™) were obtained from the American Type Culture Collection (Manassas, VA, USA). […] The cell cultures were maintained at 37 °C in humidified atmosphere containing 5% CO2. […] After three passages the cells were used for the experiments. […] Then samples were vacuum evaporated and dissolved in DMSO to their stock concentrations of 20 mM. Cells (1.0 × 10^4) were seeded in 96-well plates (Jet Biofil, Guangzhou, China) and cultured in 200 µL of complete culture medium for 24 h at 37 °C in 5% CO2 incubator.

In assay [2] the test system is colorectal carcinoma HT-29 cells. The assay can be described thus: MTS cell viability assay, HT-29 cells. The format is cell-based, human. As for the experimental part:
as §1
On the technique in general: Tetrazolium assays rely on reduction of a dye to a coloured formazan, in cell work by metabolically active cells.

Assay [3] deals with melanoma RPMI-7951 cells. The assay can be described thus: MTS cell viability assay, RPMI-7951 cells. The format is cell-based, human. How it is done:
as §1

The test system of assay [4] is breast cancer MDA-MB-231 cells. The assay can be described thus: MTS cell viability assay, MDA-MB-231 cells. The class given is cell-based, human. As for the experimental part:
as §1

Assay [5] has as its system colorectal carcinoma HT-29 cells. As to the kind of experiment: Soft agar colony formation assay, HT-29 cells. The class given is cell-based, human. The note with it: for colony growth of HT-29 cells (in words): concentrations of 0.5 µM and 1 µM; for colony formation of HT-29 cells (in words): nontoxic concentration of 0.5 µM. As for the experimental part:
(§2) Compounds 1–6 were dissolved in sterile DMSO to prepare stock concentrations of 20 mM. Cells were treated with serially diluted compounds 1–6 (culture medium used as diluent) to give the intended final concentrations. The vehicle control is the cells treated with equivalent volume of DMSO (less than 0.5%) for all presented experiments.
(§3) Human cancer cells (2.4 × 10^4/mL) were seeded into 6-well plate and treated with compounds 1–6 (0.1, 0.5, and 1 µM) or cisplatin (3 µM) in 1 mL of 0.3% BME agar containing 10% FBS, 2 mM L-glutamine, and 25 µg/mL gentamicin. The cultures were maintained in a 37 °C, 5% CO2 incubator for 14 days, and the cell colonies were scored using a Motic microscope AE 20 (XiangAn, Xiamen, China) and ImageJ software bundled with 64-bit Java 1.8.0_112 (NIH, Bethesda, MD, USA).
(§4) Figure 3 Effect of compounds 1–6 on colony formation of human colorectal carcinoma HT-29, melanoma RPMI-7951, and breast cancer MDA-MB-231 cell lines. HT-29, RPMI-7951, and MDA-MB-231 cells (2.4 × 10^4 /mL) treated with/without investigated 1–6 (0.1, 0.5, and 1 µM) and subjected into a soft agar. The culture was maintained at 37 °C in a 5% CO2 atmosphere for 2 weeks. The colonies were counted under a microscope with the aid of the ImageJ software program (n = 6 for control and each compound, n—quantity of photos). The asterisks (* p < 0.05, ** p < 0.01, *** p < 0.001) indicate a significant decrease in colony formation in cells treated with compounds compared with the nontreated cells (control).

Assay [6] concerns melanoma RPMI-7951 cells. The assay can be described thus: Soft agar colony formation assay, RPMI-7951 cells. The format is cell-based, human. The settings on record: for colony growth of RPMI-7951 cells (in words): concentrations of 0.5 µM and 1 µM; for colony formation of RPMI-7951 cells (in words): nontoxic concentration of 0.5 µM. As for the experimental part: as §2, §3, §4

Assay [7] concerns breast cancer MDA-MB-231 cells. As to the kind of experiment: Soft agar colony formation assay, MDA-MB-231 cells. The format is cell-based, human. The settings on record: for colony growth of MDA-MB-231 cells (in words): concentrations of 0.5 µM and 1 µM; for colony formation of MDA-MB-231 cells (in words): nontoxic concentration of 0.5 µM. As for the experimental part:
as §2, §3, §4

Setting [8] is: Homo sapiens, HEK293, 24 h, read-out: Inhibiting Concentration, (IC50), HEK 293, a.
The mark [9] stands for this setting: Homo sapiens, HT-29, 24 h, read-out: Inhibiting Concentration, (IC50), HT-29, a.
Setting [10] is: Homo sapiens, RPMI-7951, 24 h, read-out: Inhibiting Concentration, (IC50), RPMI-7951, a.
[11] abbreviates: Homo sapiens, MDA-MB-231, 24 h, read-out: Inhibiting Concentration, (IC50), MDA-MB-231, a.

As to `C=C(C)[C@H]1[C@@H]2C[C@@]3(C)C4=CC[C@H]5C(C)(C)[C@@H](O[C@@H]6OC[C@@H](O)[C@H](O)[C@H]6O[C@@H]6O[C@H](C)[C@@H](O[C@@H]7O[C@H](CO)[C@@H](O)[C@H](O[C@@H]8OC[C@@H](O)[C@H](OC)[C@H]8O)[C@H]7O)[C@H](O)[C@H]6O)CC[C@]5(C)[C@@H]4CCC13C(=O)O2` [Compound 6, cucumarioside A10], the IC50 in assay [1] (setting [8]) was found to be 6.3 ± 0.6 µM; in assay [2] (setting [9]) it was 7.8 ± 0.7 µM; in the assay on melanoma RPMI-7951 cells [3] (setting [10]) it was 5.8 ± 2.6 µM; in assay [4] (setting [11]), 5.5 ± 0.1 µM. The “decrease of number of colonies of HT-29” value in assay [5] (1 µM, soft agar, 14 days) is 28%. In the assay on melanoma RPMI-7951 cells [6] (1 µM, soft agar, 14 days), the “decrease of number of colonies of RPMI-7951” value is listed as 45%. In assay [7] (1 µM, soft agar, 14 days), the “decrease of number of colonies of MDA-MB-231” value stood at 40%.
Take `CO[C@@H]1[C@@H](O)[C@H](O[C@@H]2[C@@H](O)[C@H](O[C@H]3[C@H](O)[C@@H](O[C@@H]4OC[C@@H](O)[C@H](O)[C@H]4O)[C@H](O[C@H]4[C@H](O[C@H]5CC[C@]6(C)[C@@H]7CCC89C(=O)O[C@@](C)(/C=C/C=C(C)C)[C@H]8[C@@H](OC(C)=O)C[C@@]9(C)C7=CC[C@H]6C5(C)C)OC[C@@H](O)[C@@H]4O)O[C@@H]3C)O[C@H](CO)[C@H]2O)OC[C@H]1O` (stereo partly shown) [Compound 5, cucumarioside C2]: the IC50 in assay [1] (setting [8]) came to 7.9 ± 0.9 µM; in assay [2] (setting [9]), 5.5 ± 0.6 µM; in the assay with melanoma RPMI-7951 cells [3] (setting [10]) it was 5.9 ± 0.9 µM; in assay [4] (setting [11]), 4.4 ± 0.09 µM. In addition, in assay [5] (soft agar), the “colony growth of HT-29 cells (in words)” value was “almost completely suppressed”. For the same molecule, the “colony formation of HT-29 cells (in words)” value in assay [5] is “almost completely suppressed”. The “colony growth of RPMI-7951 cells (in words)” value with melanoma RPMI-7951 cells [6] (soft agar) was “almost completely suppressed”. For the same molecule, the “colony formation of RPMI-7951 cells (in words)” value with melanoma RPMI-7951 cells [6] was “almost completely suppressed”. Further, the “colony growth of MDA-MB-231 cells (in words)” value in assay [7] (soft agar) is listed as “almost completely suppressed”. Further, in assay [7], the “colony formation of MDA-MB-231 cells (in words)” value is reported as “almost completely suppressed”.
Consider `CO[C@@H]1[C@@H](O)[C@H](O[C@@H]2[C@@H](O)[C@H](O[C@H]3[C@H](O)[C@@H](O[C@@H]4OC[C@@H](O)[C@H](O)[C@H]4O)[C@H](O[C@H]4[C@H](O[C@H]5CC[C@]6(C)[C@@H]7CCC89C(=O)O[C@@](C)(CCC=C(C)C)[C@H]8[C@@H](OC(C)=O)C[C@@]9(C)C7=CC[C@H]6C5(C)C)OC[C@@H](O)[C@@H]4O)O[C@@H]3C)O[C@H](CO)[C@H]2O)OC[C@H]1O` (stereo partly drawn) [Compound 3, 3β-O-{3-O-methyl-β-D-xylopyranosyl-(1→3)-β-D-glucopyranosyl-(1→4)-[β-D-xylopyranosyl-(1→2)]-β-D-quinovopyranosyl-(1→2)-β-D-xylopyranosyl}-16β-acetoxyholosta-7,24-diene], for which the IC50 in assay [1] (Homo sapiens, HEK293, 24 h, individual compounds, 24 h, MTS, read-out: Inhibiting Concentration, (IC50), HEK 293, a) amounted to 6.7 ± 0.2 µM; in assay [2] (Homo sapiens, HT-29, 24 h, individual compounds, 24 h, MTS, read-out: Inhibiting Concentration, (IC50), HT-29, a), 6.2 ± 0.3 µM; with melanoma RPMI-7951 cells [3] (Homo sapiens, RPMI-7951, 24 h, individual compounds, 24 h, MTS, read-out: Inhibiting Concentration, (IC50), RPMI-7951, a) it was 23.7 ± 0.4 µM; in assay [4] (Homo sapiens, MDA-MB-231, 24 h, individual compounds, 24 h, MTS, read-out: Inhibiting Concentration, (IC50), MDA-MB-231, a) it was 6.4 ± 0.4 µM. Also, the “colony growth of HT-29 cells (in words)” value in assay [5] (soft agar) was “almost completely suppressed”. In addition, the “colony formation of HT-29 cells (in words)” value in assay [5] is reported as “almost completely suppressed”. For the same molecule, the “colony growth of RPMI-7951 cells (in words)” value in the assay with melanoma RPMI-7951 cells [6] (soft agar) is “almost completely suppressed”. Besides, the “colony formation of RPMI-7951 cells (in words)” value with melanoma RPMI-7951 cells [6] is recorded as “almost completely suppressed”. Further, the “colony growth of MDA-MB-231 cells (in words)” value in assay [7] (soft agar) is “almost completely suppressed”. For the same molecule, the “colony formation of MDA-MB-231 cells (in words)” value in assay [7] was “almost completely suppressed”.
Regarding `N.N.[Cl][Pt][Cl]` [cisplatin, reference compound], the IC50 in assay [1] (after 48 h of treatment (data not shown), read-out: IC50 against HEK 293 cells) is 64.6 µM; in assay [2] (after 48 h of treatment (data not shown), read-out: IC50 against HT-29 cells) it was 95.4 µM; with melanoma RPMI-7951 cells [3] (after 48 h of treatment (data not shown), read-out: IC50 against RPMI-7951 cells), 48.4 µM; in assay [4] (after 48 h of treatment (data not shown), read-out: IC50 against MDA-MB-231 cells), 7.8 µM.
